The test system of one test is humans. The conditions noted are these: cited from earlier work.
Another test has as its target 5-HT2A receptor (Homo sapiens, UniProt P28223). The settings on record: cited from earlier work.
A further test addresses D2 receptors (Homo sapiens, UniProt P14416). The conditions noted are these: literature and data on file; cited from earlier work.
For test [1], the target named is T1, 5-HT transporter (SERT) (Homo sapiens, UniProt P31645). Kind of test: interaction with the 5-HT transporter. The conditions noted are these: data on file.
T1 sequence (P31645 whole entry, species assumed): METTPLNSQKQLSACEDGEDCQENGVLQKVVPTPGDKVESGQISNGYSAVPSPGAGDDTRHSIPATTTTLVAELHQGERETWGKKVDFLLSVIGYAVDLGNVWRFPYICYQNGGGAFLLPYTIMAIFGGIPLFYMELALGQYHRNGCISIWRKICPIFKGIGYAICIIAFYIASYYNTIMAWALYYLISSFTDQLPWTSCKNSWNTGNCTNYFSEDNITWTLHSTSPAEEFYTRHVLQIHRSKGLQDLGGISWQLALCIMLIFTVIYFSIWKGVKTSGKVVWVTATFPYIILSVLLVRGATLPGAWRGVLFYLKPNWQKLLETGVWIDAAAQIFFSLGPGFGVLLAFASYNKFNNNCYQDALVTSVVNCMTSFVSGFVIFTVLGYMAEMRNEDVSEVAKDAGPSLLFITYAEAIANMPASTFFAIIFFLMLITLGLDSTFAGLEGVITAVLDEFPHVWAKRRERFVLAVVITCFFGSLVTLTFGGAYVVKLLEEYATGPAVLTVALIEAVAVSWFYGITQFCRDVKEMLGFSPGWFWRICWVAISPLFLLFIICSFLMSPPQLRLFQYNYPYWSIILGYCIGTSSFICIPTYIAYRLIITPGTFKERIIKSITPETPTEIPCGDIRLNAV
Another test has as its target T2, 5-HT1A receptor (Homo sapiens, UniProt P08908).
T2 sequence (P08908 1-422): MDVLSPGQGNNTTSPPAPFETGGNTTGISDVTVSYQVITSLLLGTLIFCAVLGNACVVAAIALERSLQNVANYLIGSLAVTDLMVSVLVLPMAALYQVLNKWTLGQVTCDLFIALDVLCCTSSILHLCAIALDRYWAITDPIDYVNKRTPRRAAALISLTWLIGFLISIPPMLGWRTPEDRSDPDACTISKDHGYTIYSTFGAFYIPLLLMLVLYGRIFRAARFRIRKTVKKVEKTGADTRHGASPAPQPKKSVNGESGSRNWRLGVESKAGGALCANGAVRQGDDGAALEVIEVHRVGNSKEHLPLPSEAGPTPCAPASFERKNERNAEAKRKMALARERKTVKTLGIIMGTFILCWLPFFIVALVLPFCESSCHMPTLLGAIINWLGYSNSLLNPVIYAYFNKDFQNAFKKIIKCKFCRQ
The settings on record: literature and data on file; cited from earlier work.

The target in test [2] is T1, 5-HT transporter (SERT). The settings on record: cited from earlier work.

Chain of 5-HT2A receptor (P28223 whole entry): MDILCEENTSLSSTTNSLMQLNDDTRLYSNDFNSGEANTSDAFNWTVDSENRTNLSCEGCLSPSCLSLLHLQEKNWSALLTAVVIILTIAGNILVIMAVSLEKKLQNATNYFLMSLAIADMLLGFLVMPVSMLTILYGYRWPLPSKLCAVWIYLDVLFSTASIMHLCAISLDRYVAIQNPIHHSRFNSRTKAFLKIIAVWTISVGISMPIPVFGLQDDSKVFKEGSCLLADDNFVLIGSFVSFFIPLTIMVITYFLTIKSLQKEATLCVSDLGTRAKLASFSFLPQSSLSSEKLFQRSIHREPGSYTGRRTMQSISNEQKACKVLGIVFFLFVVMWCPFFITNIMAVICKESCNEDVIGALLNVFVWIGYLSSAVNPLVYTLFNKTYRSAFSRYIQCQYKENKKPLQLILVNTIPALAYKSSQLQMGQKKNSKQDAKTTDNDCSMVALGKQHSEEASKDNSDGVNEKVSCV
Chain of D2 receptors (P14416 whole entry): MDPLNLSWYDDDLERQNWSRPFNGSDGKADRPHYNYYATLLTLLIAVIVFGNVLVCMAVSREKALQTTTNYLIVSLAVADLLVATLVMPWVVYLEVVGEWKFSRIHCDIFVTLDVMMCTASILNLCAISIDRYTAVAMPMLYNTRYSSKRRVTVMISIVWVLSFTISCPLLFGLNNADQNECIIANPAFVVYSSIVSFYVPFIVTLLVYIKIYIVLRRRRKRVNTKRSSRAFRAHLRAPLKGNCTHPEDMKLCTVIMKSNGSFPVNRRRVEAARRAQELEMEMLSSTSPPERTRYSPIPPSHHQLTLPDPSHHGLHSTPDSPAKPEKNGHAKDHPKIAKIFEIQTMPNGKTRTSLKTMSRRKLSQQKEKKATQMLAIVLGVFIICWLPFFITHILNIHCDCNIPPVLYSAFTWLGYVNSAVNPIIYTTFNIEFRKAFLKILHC

For the compound `CCN(CC)C(=O)[C@@H]1C=C2c3cccc4[nH]cc(c34)C[C@H]2N(C)C1` [LSD, lysergic acid diethylamide], the “duration of action / psychoactive effects” value in the test with humans is 8 to 12 h.
For `COc1cc(CCN)cc(OC)c1OC` [mescaline], on 5-HT2A receptor, the “5-HT2A receptor affinity” value was “very weak”. Also, the “D2 receptor affinity” value on D2 receptors is given as “no affinity”.
On to `COc1cc(CC(C)N)c(OC)cc1C` (centres unmarked) [DOM, 2,5-dimethoxy-4-methylamphetamine], for which the “interaction with the SERT” value at 5-HT transporter (SERT) [1] is “do not interact”. In the test with humans, the “duration of action / psychoactive effects” value is 14 to 20 h; the “psychoactive dose in humans (full active doses / human potency)” value is 3 to 10 mg; the “psychoactive dose, off of baseline” value is 1 mg; the “time to first subjective effects” value is 30 min. For the same compound, the “time to full effects (onset of action)” value in the test with humans is recorded as “up to 2 hours”. Besides, at 5-HT2A receptor, the “5-HT2A receptor affinity” value is listed as “high affinities”. Besides, on 5-HT1A receptor, the “5-HT1A receptor affinity” value is listed as “very low affinity”. For the same compound, the “D2 receptor affinity” value on D2 receptors is “no affinity”.
As for `COc1cc(CCN)c(OC)cc1C` [2C-D, 2,5-dimethoxy-4-methylphenethylamine], in the test with humans, the “duration of action / psychoactive effects” value was 4 to 6 h and the “psychoactive dose in humans (full active doses / human potency)” value was 20 to 60 mg.
Turning to `COc1cc(C)cc(OC)c1CC(C)N` (centres unmarked) [ψ-DOM, 2,6-dimethoxy-4-methylamphetamine], in the test on humans, the “duration of action / psychoactive effects” value is 6 to 8 h and the “psychoactive dose in humans (full active doses / human potency)” value was 15 to 25 mg. For the same compound, the “dose relative to DOM” value in the test with humans (higher dose than DOM) is recorded as 3- to 5 fold. Also, the “5-HT2A binding affinity in comparison to DOM” value on 5-HT2A receptor is given as “approximately three-fold lower”.
Turning to `C#Cc1cc(OC)c(CCN)cc1OC.Cl` [2C-YN, 2,5-Dimethoxy-4-ethynylphenethylamine hydrochloride], in the test with humans, the “duration of action / psychoactive effects” value was 2 to 3 h.
As for `CN(C)CCc1c[nH]c2cccc(O)c12` [Psilocin], at 5-HT transporter (SERT) [2], the “action at the SERT” value was “inhibits”.
